# Experiments:
# [1] = target: T1, hTG2 (Homo sapiens, UniProt P21980); settings: shown previously; cited from earlier work
# T1 sequence (P21980 1-687): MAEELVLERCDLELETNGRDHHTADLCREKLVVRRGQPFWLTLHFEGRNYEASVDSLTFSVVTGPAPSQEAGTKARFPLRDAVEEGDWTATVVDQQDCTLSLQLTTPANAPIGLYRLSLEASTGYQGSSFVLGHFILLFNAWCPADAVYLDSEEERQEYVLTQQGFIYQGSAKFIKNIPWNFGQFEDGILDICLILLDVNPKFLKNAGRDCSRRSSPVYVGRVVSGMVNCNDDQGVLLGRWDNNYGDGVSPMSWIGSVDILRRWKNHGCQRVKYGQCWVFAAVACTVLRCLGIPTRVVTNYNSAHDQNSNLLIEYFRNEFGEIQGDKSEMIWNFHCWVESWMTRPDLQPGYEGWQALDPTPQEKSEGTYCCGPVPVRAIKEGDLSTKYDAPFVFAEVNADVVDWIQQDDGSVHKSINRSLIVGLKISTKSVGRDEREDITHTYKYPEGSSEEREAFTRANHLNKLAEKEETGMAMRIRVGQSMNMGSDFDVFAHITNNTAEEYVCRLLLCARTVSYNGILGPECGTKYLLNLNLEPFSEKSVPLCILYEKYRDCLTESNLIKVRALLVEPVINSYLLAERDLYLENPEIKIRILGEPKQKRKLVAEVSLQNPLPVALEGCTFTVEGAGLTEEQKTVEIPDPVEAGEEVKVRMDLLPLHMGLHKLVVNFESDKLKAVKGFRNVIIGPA
# [2] = target: T1, hTG2; assay: In vitro GTP binding assay (BODIPY GTP-γ-S fluorescence); settings: inhibitor 2×KI, 30 minutes at 25° C.; 3 μM BODIPY GTP-γ-S
# Description: Previously we proposed a mechanism of action for the NC9, VA4 and AA9 inhibitors based on their ability to react covalently with the open conformation of TG2, locking the enzyme in that conformation and thereby abolishing the enzyme's ability to bind GTP and act as a G-protein. […] We used the same in vitro GTP binding assay to measure the ability of representative phenylacetyl inhibitors 67 and 72 to abolish GTP binding, as follows:
# In vitro GTP binding assay. GTP binding was measured using a method similar to that reported previously (McEwen, D. P. et al., “Fluorescent BODIPY-GTP analogs: Real-time measurement of nucleotide binding to G proteins.” Anal. Biochem. 2001, 291 (1), 109-117). […] The buffer was then exchanged to 100 mM MOPS (pH=7.0), 1 mM EGTA and 5 mM MgCl2 to remove calcium via dialysis using a 10-kDa molecular weight cut off membrane. The fluorescent GTP analog was added to give a final concentration of 3.0 μM and fluorescence was measured on a microplate reader after 10 minutes of incubation (Ex/Em: 490/520 nm).
Compound,suppression of TG2 binding of GTP-γ-S-FL BODIPY [1],inhibition of GTP binding of hTG2 [2]
"C=CC(=O)NCCCC[C@H](NC(=O)OCc1ccccc1)C(=O)N1CCN(C(=O)c2cccc3ccccc23)CC1 [AA9, reference compound]",suppress the ability of TG2 to bind GTP-γ-S-FL BODIPY,–
"C=CC(=O)NCCCC[C@H](NC(=O)Cc1ccccc1F)C(=O)N1CCN(C(=O)c2cccc3ccccc23)CC1 [Inhibitor 72, (S)-N-(6-(4-(1-naphthoyl)piperazin-1-yl)-5-(2-(2-fluorophenyl)acetamido)-6-oxohexyl)acrylamide]",–,abolished the GTP binding ability
